Some test systems named below: NCI/ADR-RES ovarian; MDA-N; DMS 273 small cell lung; KM20L2 colon; LXFL 529 NSCLC; XF 498 CNS; DMS 114 small cell lung; HOP-18 NSCLC.
Test in all cases: NCI anticancer screen, dose series, 48 h

Where “and” joins values, the source holds several entries; their conditions need not be identical. Identical values can stand only once.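 Briefly, cells in 96-well plates were exposed to five compound concentrations for 48 h, and endpoints were estimated by linear interpolation. Abbreviation: GI50, concentration required for 50% inhibition of growth. TGI denotes the concentration required for complete inhibition of growth.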

Consider `Oc1ccc2ccccc2c1C=NCCCN=Cc1c(O)ccc2ccccc12`, for which, in the assay on NCI/ADR-RES ovarian, the GI50 was 14.6 µM and the TGI worked out at 49.4 µM.
On the same counts, the results for `CCNC(=O)C[C@@H]1N=C(c2ccc(Cl)cc2)c2cc(OC)ccc2-n2c(C)nnc21` are > 56 µM and > 100 µM.
For `Cc1ccc(Nc2nc(NCCO)c3ccccc3n2)cc1C`, in the assay on NCI/ADR-RES ovarian, the GI50 was 7.18 µM and the TGI turned out to be 20.6 µM.
On the same counts, the results for `CC/C=C\C[C@H](O)C/C=C1/C(=O)C=C[C@@H]1C/C=C\CCCC(=O)NC(C)C` are 3.28 µM and 13.6 µM.
For `Cn1c(C(N)=O)cc2c1-c1nc(Nc3ccccc3)ncc1CCC2`, in that order: 6.3 µM and 49.8 µM.
For `C=C1C(=O)O[C@H]2[C@H]1CC/C(COC(=O)C(=O)c1c[nH]c3ccccc13)=C\CC[C@@]1(C)O[C@@H]21`, in that order: 3.92 µM and 19.4 µM.
Regarding `Cc1ccc(NC(c2ccccc2)c2ccc3cccnc3c2O)cc1` (configuration not stated), the TGI in the assay on MDA-N is 17.7 µM; with NCI/ADR-RES ovarian it was 15.2 µM.
For `CC(C)C[C@@H](NC(=O)[C@@H](Cc1ccccc1)NC(=O)c1cnccn1)B1O[C@H]2[C@H](O)[C@@H](C(=O)NCCCC[C@@H]3NC(=O)[C@@H](Cc4ccccc4)NC(=O)[C@H](CC(=O)O)NC(=O)CNC(=O)[C@H](CCCN=C(N)N)NC3=O)O[C@@H](CN)[C@H]2O1`, in the assay with NCI/ADR-RES ovarian, the GI50 was 0.0984 µM and 0.0844 µM; the TGI was 0.586 µM.
Turning to `CC(O)C1OC(O)C2OC(C)(C)OC12` (configuration not stated), the TGI in the assay on MDA-N and with NCI/ADR-RES ovarian was > 100 µM in each case.
As for `COC(=O)c1c[nH]cc1CCc1c[nH]cc1C(=O)OC`, the TGI in the assay with DMS 273 small cell lung, in the assay with KM20L2 colon, with LXFL 529 NSCLC and in the assay with XF 498 CNS was > 100 µM each time.
As to `c1ccc(N=C2c3ccccc3CN2c2ccccc2)cc1`, the TGI in the assay with MDA-N and with NCI/ADR-RES ovarian was > 100 µM each time.
As for `CN(C)c1ccc(-c2cc(=O)c3ccccc3[nH]2)cc1`, the TGI in the assay on DMS 114 small cell lung, in the assay with DMS 273 small cell lung, with KM20L2 colon and with LXFL 529 NSCLC was > 100 µM throughout.
As to `O=C(O)c1ccc(S(=O)(=O)c2ccccc2)c([N+](=O)[O-])c1`, the TGI in the assay on DMS 114 small cell lung, in the assay on DMS 273 small cell lung, with HOP-18 NSCLC, in the assay on KM20L2 colon and in the assay on LXFL 529 NSCLC was > 100 µM each time.
In the case of `CC[C@@H]1C[C@@H]2CN3CCc4c([nH]c5ccc(OC)cc45)C(COC(=O)c4ccc(OC)c(OC)c4)(C2)C13`, the TGI was 71.8 µM in the assay on DMS 114 small cell lung; > 100 µM in the assay with HOP-18 NSCLC; 74.3 µM in the assay with KM20L2 colon; 35.1 µM in the assay with LXFL 529 NSCLC; 46.1 µM in the assay on XF 498 CNS.
Turning to `COc1cc(/C=C(/C)[N+](=O)[O-])ccc1O`, in the assay with NCI/ADR-RES ovarian, the GI50 was 3.18 µM and 3.08 µM; the TGI was 11.8 µM and 10.9 µM.
Regarding `O=C(Cc1nc2ccccc2s1)C(=O)Nc1ccc(Cl)cc1`, the TGI with DMS 114 small cell lung, with DMS 273 small cell lung, in the assay with HOP-18 NSCLC, with KM20L2 colon and in the assay with LXFL 529 NSCLC was > 100 µM in each case.
In the case of `O=C(Nc1ccc(S(=O)(=O)Nc2nccs2)cc1)c1cccnc1Nc1cccc(Cl)c1`, in the assay on NCI/ADR-RES ovarian, the GI50 is 15.6 µM and the TGI came to 45.7 µM.
On to `Oc1c(CN2CCC(N3CCOCC3)CC2)cc(Cc2cc(CN3CCC(N4CCOCC4)CC3)c(O)c3ncccc23)c2cccnc12`, for which, in the assay with NCI/ADR-RES ovarian, the GI50 was 3.54 µM and the TGI is > 100 µM.
For `CC1=C(C)C(=O)c2c(c(C(=O)c3ccccc3)c3nc4ccccc4n3c2C)C1=O`, in that order: > 100 µM and > 100 µM.
For `C=C1C(=O)O[C@@H]2C[C@@H]1CC[C@]1(C)O[C@H]1CC[C@@]1(C)O[C@@H]1CC[C@@]2(C)O`, in that order: 20.1 µM and 46.9 µM.
For `COc1ccc(C(=O)Cn2c(C(=O)c3ccc(Cl)cc3)nc3ccccc32)cc1`, in that order: 5.15 µM and > 37.4 µM.
On to `CNc1ccccc1C(=O)N/N=C/C=C/c1ccccc1`, for which, in the assay with NCI/ADR-RES ovarian, the GI50 is 0.568 µM and the TGI is > 100 µM.
In the case of `CCN1C(=O)C/C(=C\C(C)=O)Nc2ccccc21`, the TGI in the assay with DMS 114 small cell lung, in the assay on DMS 273 small cell lung, in the assay on LXFL 529 NSCLC, in the assay with NCI/ADR-RES ovarian and with XF 498 CNS was > 100 µM in each case. Moreover, in the assay with NCI/ADR-RES ovarian, the GI50 is > 100 µM.
For the compound `COc1cccc(-c2nn(-c3ccccc3)cc2-c2ccnc(NCCNS(=O)(=O)c3ccc(Cl)cc3)c2)c1`, in the assay with NCI/ADR-RES ovarian, the GI50 is 4.29 µM and the TGI is > 100 µM.
For `OCCN(CCO)N=Nc1ccc(-c2nc3ccccc3[nH]2)cc1`, in that order: 34 µM and 58 µM.
For `C[Si](C)(C)C#CCO[Si](C)(C)C`, the TGI with MDA-N and in the assay on NCI/ADR-RES ovarian was > 100 µM throughout.
With `COc1ccc(C(=O)Cn2c(C(=O)c3ccc(OC)cc3)nc3ccccc32)cc1`, in the assay on NCI/ADR-RES ovarian, the GI50 was 0.671 µM and the TGI is 4.06 µM.
On the same counts, the results for `CCCCCCCCCCCCN1C(C)=CS/C1=C\C=C\c1scc(C)[n+]1CCCCCCCCCCCC` are 3.06 µM and 34.4 µM.
With `CCCN1C(=O)C/C(=C\C(C)=O)Nc2ccccc21`, the TGI with DMS 114 small cell lung, in the assay on DMS 273 small cell lung, in the assay on LXFL 529 NSCLC and in the assay with XF 498 CNS was > 100 µM throughout.
`CS(=O)(=O)c1ccc(Oc2cc(F)cc(C#N)c2)c2c1[C@H](O)[C@H](F)[C@@H]2F`: in the assay on NCI/ADR-RES ovarian, the GI50 was > 100 µM and the TGI is > 100 µM.
Consider `CCNc1nnc(CSc2nc(-c3ccccc3)c(-c3ccccc3)[nH]2)s1`, for which the TGI was found to be 63.1 µM in the assay with DMS 114 small cell lung, 42.9 µM with DMS 273 small cell lung, 46.1 µM in the assay on KM20L2 colon and 64.8 µM in the assay with LXFL 529 NSCLC.
Turning to `Nc1c(C(=O)Nc2ccccc2)sc2nc3c(cc12)CCCCCC3`, in the assay on NCI/ADR-RES ovarian, the GI50 was 0.332 µM and the TGI is 3.32 µM.
As for `CCn1c(=O)c(-c2ccn[nH]2)cc2c(C)nc(N)nc21`, in the assay on NCI/ADR-RES ovarian, the GI50 is 1.4 µM and the TGI is > 100 µM.
